Converted amounts (≈) assume the structure as drawn. Bridge positions count the residues as written; N and C are the ends. Peptide text beside a SMILES is read from it. I, II: the chains in the order shown. * marks the point of attachment. Palmitoyl = CCCCCCCCCCCCCCCC(=O)*; Myristoyl = CCCCCCCCCCCCCC(=O)*; Hexanoyl = CCCCCC(=O)*
Legend:
[1] = Toxicity in New Zealand white rabbit erythrocytes assessed as hemolytic activity after 60 mins; assay type: cell-based, Oryctolagus cuniculus; conditions: erythrocyte, 1 h
Klebsiella pneumoniae [2] = test: Antibacterial activity against Klebsiella pneumoniae DM4299 after 24 hrs by broth microdilution method; assay type: functional; conditions: DM4299, 24 h
Pseudomonas aeruginosa [3] = test: Antibacterial activity against Pseudomonas aeruginosa DM23155 after 24 hrs by broth microdilution method; assay type: functional; conditions: DM23155, 24 h
Escherichia coli [4] = test: Antibacterial activity against Escherichia coli ATCC 25922 after 24 hrs by broth microdilution method; assay type: functional; conditions: ATCC 25922, 24 h
[5] = Self-aggregation activity of the compound using 8-(Phenylamino)-1-naphthalenesulfonic acid as fluorescent probe at 20 uM by fluorescence assay; assay type: physicochemical
[6] = Self-aggregation activity of the compound using 8-(Phenylamino)-1-naphthalenesulfonic acid as fluorescent probe at 100 uM by fluorescence assay; assay type: physicochemical
[7] = Self-aggregation activity of the compound using 8-(Phenylamino)-1-naphthalenesulfonic acid as fluorescent probe at 300 uM by fluorescence assay in presence of 150 mM of NaCl; assay type: physicochemical
Lipopolysaccharide (LPS) [8] = test: Displacement of dansylcadaverine from Escherichia coli 0111:B4 LPS at 15 to 30 uM after 5 mins by high-throughput fluorescence displacement assay
Lipopolysaccharide (LPS) [9] = test: Induction of Escherichia coli 0111:B4 LPS neutralization using p-nitroaniline assessed as concentration required to neutralize 50% after 1 hr by limulus amebocyte lysate assay
Pseudomonas aeruginosa [10] = test: Induction of 1-N-phenylnaphthylamine uptake in Pseudomonas aeruginosa DM23155 at 400 uM after 1 hr by fluorescence assay relative to polymyxin B; assay type: functional
[11] = Induction of calcein leakage from DOPC artificial membrane at 1:32 ratio of compound to lipid by fluorescence assay; assay type: physicochemical
Pseudomonas aeruginosa [12] = test: Induction of cytoplasmic membrane disruption in Pseudomonas aeruginosa DM23155 assessed as membrane integrity at 1 to 2 times MIC after 1 hr by fluorescence assay; assay type: functional
[13] = Induction of calcein leakage from DOPE/DOPG artificial membrane at 1:32 ratio of compound to lipid by fluorescence assay; assay type: physicochemical
Escherichia coli [14] = test: Antibacterial activity against Escherichia coli DS17232 after 24 hrs by broth microdilution method; assay type: functional; conditions: DS17232, 24 h
Escherichia coli [15] = test: Antibacterial activity against Escherichia coli DM17528 after 24 hrs by broth microdilution method; assay type: functional; conditions: DM17528, 24 h
Klebsiella pneumoniae [16] = test: Antibacterial activity against Klebsiella pneumoniae DS07955 after 24 hrs by broth microdilution method; assay type: functional; conditions: DS07955, 24 h
Klebsiella pneumoniae [17] = test: Antibacterial activity against Klebsiella pneumoniae DS16260 after 24 hrs by broth microdilution method; assay type: functional; conditions: DS16260, 24 h
Klebsiella pneumoniae [18] = test: Antibacterial activity against Klebsiella pneumoniae DU31158 after 24 hrs by broth microdilution method; assay type: functional; conditions: DU31158, 24 h
Klebsiella pneumoniae [19] = test: Antibacterial activity against Klebsiella pneumoniae DB55301 after 24 hrs by broth microdilution method; assay type: functional; conditions: DB55301, 24 h
Pseudomonas aeruginosa [20] = test: Antibacterial activity against Pseudomonas aeruginosa DM23155 after 24 hrs by checkerboard assay in presence of nalidixic acid; assay type: functional
Pseudomonas aeruginosa [21] = test: Antibacterial activity against Pseudomonas aeruginosa DM23155 after 24 hrs by checkerboard assay in presence of gentamicin; assay type: functional
Pseudomonas aeruginosa [22] = test: Antibacterial activity against Pseudomonas aeruginosa DM23155 after 24 hrs by checkerboard assay in presence of erythromycin; assay type: functional
Pseudomonas aeruginosa [23] = test: Antibacterial activity against Pseudomonas aeruginosa DM23155 after 24 hrs by checkerboard assay in presence of streptomycin; assay type: functional
Pseudomonas aeruginosa [24] = test: Antibacterial activity against Pseudomonas aeruginosa DM23155 after 24 hrs by checkerboard assay in presence of kanamycin; assay type: functional
Escherichia coli [25] = test: Antibacterial activity against Escherichia coli ATCC 25922 after 24 hrs by checkerboard assay in presence of nalidixic acid; assay type: functional
Escherichia coli [26] = test: Antibacterial activity against Escherichia coli ATCC 25922 after 24 hrs by checkerboard assay in presence of gentamicin; assay type: functional
Escherichia coli [27] = test: Antibacterial activity against Escherichia coli ATCC 25922 after 24 hrs by checkerboard assay in presence of erythromycin; assay type: functional
Escherichia coli [28] = test: Antibacterial activity against Escherichia coli ATCC 25922 after 24 hrs by checkerboard assay in presence of streptomycin; assay type: functional
Escherichia coli [29] = test: Antibacterial activity against Escherichia coli ATCC 25922 after 24 hrs by checkerboard assay in presence of kanamycin; assay type: functional

| Structure (SMILES) | HC10 [1] [µg/mL] | MIC (Klebsiella pneumoniae [2]) [µM] | MIC (Pseudomonas aeruginosa [3]) [µM] | MIC (Escherichia coli [4]) [µM] | Activity [5] [%] | Activity [6] [%] | Activity [7] | Activity (Lipopolysaccharide (LPS) [8]) [%] | EC50 (Lipopolysaccharide (LPS) [9]) [µM] | Activity (Pseudomonas aeruginosa [10]) [%] | Activity [11] | Activity (Pseudomonas aeruginosa [12]) [%] | Activity [13] | fractional inhibitory concentration index (FICI) (Pseudomonas aeruginosa [20]) | fractional inhibitory concentration index (FICI) (Pseudomonas aeruginosa [21]) | fractional inhibitory concentration index (FICI) (Pseudomonas aeruginosa [22]) | fractional inhibitory concentration index (FICI) (Pseudomonas aeruginosa [23]) | fractional inhibitory concentration index (FICI) (Pseudomonas aeruginosa [24]) | fractional inhibitory concentration index (FICI) (Escherichia coli [25]) | fractional inhibitory concentration index (FICI) (Escherichia coli [26]) | also measured |
| --- | --- | --- | --- | --- | --- | --- | --- | --- | --- | --- | --- | --- | --- | --- | --- | --- | --- | --- | --- | --- | --- |
| CCCCCCCCCCCCCC(=O)N[C@@H](CCCNC(=N)N)C(=O)NCC(=O)N[C@@H](CCCNC(=N)N)C(=O)N[C@@H](CCCCN)C(=O)NCC(=O)NCC(=O)N[C@@H](CCCNC(=N)N)C(=O)N[C@@H](CCCNC(=N)N)C(=O)NCCCC[C@H](NC(=O)[C@H](CCCNC(=N)N)NC(=O)[C@H](CCCNC(=N)N)NC(=O)CNC(=O)CNC(=O)[C@H](CCCCN)NC(=O)[C@H](CCCNC(=N)N)NC(=O)CNC(=O)[C@H](CCCNC(=N)N)NC(=O)CCCCCCCCCCCCC)C(=O)N[C@@H](CCCCN)C(=O)O (I: Myristoyl-RGRKGGRRKK-OH / II: Myristoyl-RGRKGGRR; amide I:9-II:C) | 82 | 10 (≈ 25.4 µg/mL) | 6 (≈ 15.3 µg/mL) | 10 (≈ 25.4 µg/mL) | 50 | 50 | Active | 124 | 35.3 | 39.2 | Active |  |  |  |  |  |  |  |  |  |  |
| CCCCCCCCCCCCCCCC(=O)N[C@@H](CCCNC(=N)N)C(=O)NCC(=O)N[C@@H](CCCNC(=N)N)C(=O)N[C@@H](CCCCN)C(=O)N[C@H](C(=O)N[C@H](C(=O)N[C@@H](CCCNC(=N)N)C(=O)N[C@@H](CCCNC(=N)N)C(=O)NCCCC[C@H](NC(=O)[C@H](CCCNC(=N)N)NC(=O)[C@H](CCCNC(=N)N)NC(=O)[C@@H](NC(=O)[C@@H](NC(=O)[C@H](CCCCN)NC(=O)[C@H](CCCNC(=N)N)NC(=O)CNC(=O)[C@H](CCCNC(=N)N)NC(=O)CCCCCCCCCCCCCCC)C(C)C)C(C)C)C(=O)N[C@@H](CCCCN)C(=O)O)C(C)C)C(C)C (I: Palmitoyl-RGRKVVRRKK-OH / II: Palmitoyl-RGRKVVRR; amide I:9-II:C) | 114 | > 40 | > 40 | 10 (≈ 27.7 µg/mL) | 50 | 50 | Active | 151 | 47.9 |  | Active | <50 | Active |  |  |  |  |  |  |  |  |
| CCCCCCCCCCCCCCCC(=O)N[C@@H](CCCNC(=N)N)C(=O)NCC(=O)N[C@@H](CCCNC(=N)N)C(=O)N[C@@H](CCCCN)C(=O)NCC(=O)NCC(=O)N[C@@H](CCCNC(=N)N)C(=O)N[C@@H](CCCNC(=N)N)C(=O)NCCCC[C@H](NC(=O)[C@H](CCCNC(=N)N)NC(=O)[C@H](CCCNC(=N)N)NC(=O)CNC(=O)CNC(=O)[C@H](CCCCN)NC(=O)[C@H](CCCNC(=N)N)NC(=O)CNC(=O)[C@H](CCCNC(=N)N)NC(=O)CCCCCCCCCCCCCCC)C(=O)N[C@@H](CCCCN)C(=O)O (I: Palmitoyl-RGRKGGRRKK-OH / II: Palmitoyl-RGRKGGRR; amide I:9-II:C) | 64 | 10 (≈ 26 µg/mL) | 10 (≈ 26 µg/mL) | 10 (≈ 26 µg/mL) | 50 | 50 | Active | 106 | 43 | 36.5 | Active |  |  |  |  |  |  |  |  |  |  |
| CCCCCC(=O)N[C@@H](CCCNC(=N)N)C(=O)NCC(=O)N[C@@H](CCCNC(=N)N)C(=O)N[C@@H](CCCCN)C(=O)N[C@H](C(=O)N[C@H](C(=O)N[C@@H](CCCNC(=N)N)C(=O)N[C@@H](CCCNC(=N)N)C(=O)NCCCC[C@H](NC(=O)[C@H](CCCNC(=N)N)NC(=O)[C@H](CCCNC(=N)N)NC(=O)[C@@H](NC(=O)[C@@H](NC(=O)[C@H](CCCCN)NC(=O)[C@H](CCCNC(=N)N)NC(=O)CNC(=O)[C@H](CCCNC(=N)N)NC(=O)CCCCC)C(C)C)C(C)C)C(=O)N[C@@H](CCCCN)C(=O)O)C(C)C)C(C)C (I: Hexanoyl-RGRKVVRRKK-OH / II: Hexanoyl-RGRKVVRR; amide I:9-II:C) | > 10000 | 6 (≈ 14.9 µg/mL) | 6 (≈ 14.9 µg/mL) | 3 (≈ 7.46 µg/mL) |  |  |  | 100 | 187 |  |  | >80 | Active | 0.38 | 0.25 | 0.38 | 0.38 | 0.31 | 0.5 | 0.38 | MIC (Escherichia coli [14]): 10 µM (≈ 24.9 µg/mL); MIC (Escherichia coli [15]): 10 µM (≈ 24.9 µg/mL); MIC (Klebsiella pneumoniae [16]): 10 µM (≈ 24.9 µg/mL); MIC (Klebsiella pneumoniae [17]): 3 µM (≈ 7.46 µg/mL); MIC (Klebsiella pneumoniae [18]): 10 µM (≈ 24.9 µg/mL); MIC (Klebsiella pneumoniae [19]): 10 µM (≈ 24.9 µg/mL); fractional inhibitory concentration index (FICI) (Escherichia coli [27]): 0.38; fractional inhibitory concentration index (FICI) (Escherichia coli [28]): 0.38; fractional inhibitory concentration index (FICI) (Escherichia coli [29]): 0.5 |
| CCCCCCCCCCCCCC(=O)N[C@@H](CCCNC(=N)N)C(=O)NCC(=O)N[C@@H](CCCNC(=N)N)C(=O)N[C@@H](CCCCN)C(=O)N[C@H](C(=O)N[C@H](C(=O)N[C@@H](CCCNC(=N)N)C(=O)N[C@@H](CCCNC(=N)N)C(=O)NCCCC[C@H](NC(=O)[C@H](CCCNC(=N)N)NC(=O)[C@H](CCCNC(=N)N)NC(=O)[C@@H](NC(=O)[C@@H](NC(=O)[C@H](CCCCN)NC(=O)[C@H](CCCNC(=N)N)NC(=O)CNC(=O)[C@H](CCCNC(=N)N)NC(=O)CCCCCCCCCCCCC)C(C)C)C(C)C)C(=O)N[C@@H](CCCCN)C(=O)O)C(C)C)C(C)C (I: Myristoyl-RGRKVVRRKK-OH / II: Myristoyl-RGRKVVRR; amide I:9-II:C) | 252 | 10 (≈ 27.1 µg/mL) | 3 (≈ 8.13 µg/mL) | 1.5 (≈ 4.07 µg/mL) | 50 | 50 | Active | 135 | 32.1 |  | Active | <50 | Active |  |  |  |  |  |  |  |  |
| CCCCCC(=O)N[C@@H](CCCNC(=N)N)C(=O)NCC(=O)N[C@@H](CCCNC(=N)N)C(=O)N[C@@H](CCCCN)C(=O)NCC(=O)NCC(=O)N[C@@H](CCCNC(=N)N)C(=O)N[C@@H](CCCNC(=N)N)C(=O)NCCCC[C@H](NC(=O)[C@H](CCCNC(=N)N)NC(=O)[C@H](CCCNC(=N)N)NC(=O)CNC(=O)CNC(=O)[C@H](CCCCN)NC(=O)[C@H](CCCNC(=N)N)NC(=O)CNC(=O)[C@H](CCCNC(=N)N)NC(=O)CCCCC)C(=O)N[C@@H](CCCCN)C(=O)O (I: Hexanoyl-RGRKGGRRKK-OH / II: Hexanoyl-RGRKGGRR; amide I:9-II:C) | > 10000 | 3 (≈ 6.96 µg/mL) | 3 (≈ 6.96 µg/mL) | 3 (≈ 6.96 µg/mL) |  |  |  | 86.4 | 413 | 10.5 |  |  |  | 0.63 | 0.31 | 0.56 | 0.5 | 0.5 | 0.75 | 0.56 | fractional inhibitory concentration index (FICI) (Escherichia coli [27]): 0.75; fractional inhibitory concentration index (FICI) (Escherichia coli [28]): 0.38; fractional inhibitory concentration index (FICI) (Escherichia coli [29]): 0.5 |

Reference: ChEMBL document CHEMBL3603789, “N-Lipidated Peptide Dimers: Effective Antibacterial Agents against Gram-Negative Pathogens through Lipopolysaccharide Permeabilization” (J Med Chem, 2015)
